The test in a line: Single-patient clinical case: combination therapy for Alzheimer's disease. The test is classed as in vivo, human. The following applies: overall outcome as stated by applicant. The procedure:
A patient suffering from significant memory loss and vision loss was evaluated for treatment. The patient suffered a gradual decline in both short-term and long-term memory over at least three years. The patient also complained about vision loss over a period of about six years. The patient scored 11 out of 30 on a mental status exam, indicating dementia or other cognitive impairment. A clinical psychologist determined that the patient was oriented to person, but poorly oriented to place and time. […] The patient acknowledged having anger problems. The patent denied having anxiety, mania, or depression but acknowledged occasional suicidal ideation. They denied having any current intent to harm […]. The patient's spouse reported that the patient would sometimes sit and rock back-and-forth. They also reported that the patient would sometimes hit their head when upset. There was no evidence that the patient suffered from delusions or hallucinations, and there was no evidence of agnosia. The patient previously had coronary artery bypass surgery and also suffered from type 2 diabetes mellitus for multiple decades. […] The patient also suffered from hepatitis C, but was not previously treated. It was determined that the patient was only able to perceive light in both eyes. The patient's loss of vision was due to glaucoma and diabetic retinopathy. […]

On to `COc1cc2c(cc1OC)C(=O)C(CC1CCN(Cc3ccccc3)CC1)C2` (centres unmarked) [donepezil], for which the “outcome of treatment of Alzheimer's disease” value is “unsuccessful”.

With `CC12CC3CC(C)(C1)CC(N)(C3)C2` [memantine], the “outcome of treatment of Alzheimer's disease” value was “unsuccessful”.
